From PMC8224453, “A New PqsR Inverse Agonist Potentiates Tobramycin Efficacy to Eradicate Pseudomonas aeruginosa Biofilms” (Advanced Science, 2021)
Where “and” joins values, the source holds several entries; their conditions need not be identical. Identical values can stand only once. Like-named read-outs stand apart in the source and are kept apart here.

Key:
[1] = biological target: T1, Norepinephrine transporter (Homo sapiens, UniProt P23975); experiment: CEREP off-target panel, antagonist radioligand; type: binding; details: @10µM
T1 construct: Eurofins Discovery (SafetyScreen44 Panel, Cerep) P270
T1 sequence (P23975 whole entry): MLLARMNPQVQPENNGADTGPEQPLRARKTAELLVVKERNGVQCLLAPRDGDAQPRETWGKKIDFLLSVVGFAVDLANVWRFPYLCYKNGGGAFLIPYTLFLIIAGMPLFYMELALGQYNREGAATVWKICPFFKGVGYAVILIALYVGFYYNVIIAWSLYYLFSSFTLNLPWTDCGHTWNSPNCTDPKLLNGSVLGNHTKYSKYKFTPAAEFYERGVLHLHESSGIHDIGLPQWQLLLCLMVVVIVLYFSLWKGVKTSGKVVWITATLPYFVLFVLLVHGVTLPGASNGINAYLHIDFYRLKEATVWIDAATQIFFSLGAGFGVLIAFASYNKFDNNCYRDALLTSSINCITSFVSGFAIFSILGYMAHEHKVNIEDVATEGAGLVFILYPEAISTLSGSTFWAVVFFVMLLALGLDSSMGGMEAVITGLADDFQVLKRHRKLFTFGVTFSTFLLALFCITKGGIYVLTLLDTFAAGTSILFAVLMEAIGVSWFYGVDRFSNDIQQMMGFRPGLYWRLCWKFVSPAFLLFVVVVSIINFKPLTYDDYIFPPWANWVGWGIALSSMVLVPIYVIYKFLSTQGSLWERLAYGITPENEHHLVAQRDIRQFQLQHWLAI
Protocol: (§1) 5. In vitro ADME/T and Safety Pharmacology
(§2) 5.1. CEREP off-targets assay
(§3) Experiments towards possible off-target effects were conducted following Eurofins Discovery protocol. Detailed information about the assays can be found in: https://www.eurofinsdiscoveryservices.com/catalogmanagement/viewitem/SafetyScreen44- […]
(§4) Table S3. Possible CEREP off-targets. entry off-target QSI 4 QSI 17 Assay
(§5) (%binding (%binding method
(§6) (1 picture or pasted object on this page, not shown here)

β2 receptor = biological target: T2, β2 receptor (Homo sapiens, UniProt P07550); experiment: CEREP off-target panel, antagonist radioligand; type: binding; details: @10µM
T2 construct: Eurofins Discovery (SafetyScreen44 Panel, Cerep) P270
T2 sequence (P07550 whole entry): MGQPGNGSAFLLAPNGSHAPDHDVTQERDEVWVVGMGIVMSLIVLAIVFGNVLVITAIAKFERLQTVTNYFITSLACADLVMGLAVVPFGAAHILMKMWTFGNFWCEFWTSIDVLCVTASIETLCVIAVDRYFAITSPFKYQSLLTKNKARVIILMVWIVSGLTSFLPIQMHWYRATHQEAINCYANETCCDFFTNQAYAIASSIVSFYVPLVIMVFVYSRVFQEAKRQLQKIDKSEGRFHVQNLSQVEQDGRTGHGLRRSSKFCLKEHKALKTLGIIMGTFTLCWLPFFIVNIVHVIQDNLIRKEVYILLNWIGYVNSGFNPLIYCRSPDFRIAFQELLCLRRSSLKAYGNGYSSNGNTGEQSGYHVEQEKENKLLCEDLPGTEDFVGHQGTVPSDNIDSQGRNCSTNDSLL
Protocol: as §1, §2, §3, §4, §5, §6

α1A receptor = biological target: T3, α1A receptor (Homo sapiens, UniProt P35348); experiment: CEREP off-target panel, antagonist radioligand; type: binding; details: @10µM
T3 construct: Eurofins Discovery (SafetyScreen44 Panel, Cerep) P270
T3 sequence (P35348 whole entry): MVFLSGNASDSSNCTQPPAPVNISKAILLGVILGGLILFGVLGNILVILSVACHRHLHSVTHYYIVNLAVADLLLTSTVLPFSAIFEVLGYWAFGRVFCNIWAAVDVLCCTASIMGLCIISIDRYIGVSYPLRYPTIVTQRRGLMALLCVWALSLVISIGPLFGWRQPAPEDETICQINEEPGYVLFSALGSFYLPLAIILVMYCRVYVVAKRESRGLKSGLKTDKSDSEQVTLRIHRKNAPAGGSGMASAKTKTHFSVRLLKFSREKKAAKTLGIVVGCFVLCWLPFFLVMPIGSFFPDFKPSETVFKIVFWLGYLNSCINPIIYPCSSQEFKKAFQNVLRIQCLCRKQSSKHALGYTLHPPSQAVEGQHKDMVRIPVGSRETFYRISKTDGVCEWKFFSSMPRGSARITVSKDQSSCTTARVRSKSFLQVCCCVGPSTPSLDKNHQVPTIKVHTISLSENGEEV
Protocol: as §1, §2, §3, §4, §5, §6

[2] = system: Ca2+ channel (L, dihydropyridine site); experiment: CEREP off-target panel, antagonist radioligand; type: binding; details: @10µM
Protocol: as §1, §2, §3, §4, §5, §6

Dopamine transporter = biological target: T4, Dopamine transporter (Homo sapiens, UniProt Q01959); experiment: CEREP off-target panel, antagonist radioligand; type: binding; details: @10µM
T4 construct: Eurofins Discovery (SafetyScreen44 Panel, Cerep) P270
T4 sequence (Q01959 whole entry): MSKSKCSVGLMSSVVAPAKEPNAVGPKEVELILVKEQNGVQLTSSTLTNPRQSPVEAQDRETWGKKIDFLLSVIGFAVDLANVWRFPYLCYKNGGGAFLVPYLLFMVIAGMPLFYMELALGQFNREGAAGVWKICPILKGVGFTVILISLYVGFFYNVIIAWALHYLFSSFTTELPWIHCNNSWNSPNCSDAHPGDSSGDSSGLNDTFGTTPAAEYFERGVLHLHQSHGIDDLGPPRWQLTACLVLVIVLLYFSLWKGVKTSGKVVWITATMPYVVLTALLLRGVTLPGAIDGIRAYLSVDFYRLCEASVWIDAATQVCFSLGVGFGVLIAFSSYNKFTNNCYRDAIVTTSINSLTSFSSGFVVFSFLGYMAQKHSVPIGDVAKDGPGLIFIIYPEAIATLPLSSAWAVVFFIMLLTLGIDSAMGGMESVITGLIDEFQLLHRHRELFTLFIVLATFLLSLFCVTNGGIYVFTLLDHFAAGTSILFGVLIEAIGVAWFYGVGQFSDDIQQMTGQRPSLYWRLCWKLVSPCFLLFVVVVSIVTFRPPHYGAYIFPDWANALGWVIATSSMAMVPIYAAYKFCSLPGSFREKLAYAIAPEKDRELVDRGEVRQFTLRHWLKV
Protocol: as §1, §2, §3, §4, §5, §6

Na+ channel (site 2) = experiment: CEREP off-target panel, antagonist radioligand; type: binding; details: @10µM
Protocol: as §1, §2, §3, §4, §5, §6

[3] = system: eDNA production in PA biofilm; experiment: Inhibition of eDNA production in biofilm; type: cell-based; details: Pseudomonas aeruginosa
[4] = Metabolic stability, mouse liver S9; type: in vitro ADME
Protocol: For the evaluation of combined phase I and phase II metabolic stability, the compound (1 μM) was incubated with 1 mg/mL pooled liver S9 fraction from the respective species (Xenotech), […]
2 mM NADPH, 1 mM UDPGA, 10 mM MgCl2, 5 mM GSH and 0.1 mM PAPS at 37 °C for […]
0, 5, 15, 30 or 60 min. The metabolic stability of Testosterone (1 μM) and verapamil (1 μM) […]
were determined in parallel to confirm the enzymatic activity of the S9 fraction. The […]
incubation was stopped by precipitation of S9 enzymes with 2 volumes of cold acetonitrile […]
containing internal standard (750 nM Diphenhydramine). Samples were stored on ice for 10 […]
min and precipitated protein was removed by centrifugation (10 min, 4 °C, 17,000 g).
Concentration of the remaining test compound at the different time points was analyzed by […]
LC-MS/MS (TSQ Quantum Access MAX, Thermo Fisher, Dreieich, Germany) and used to […]
determine half-life (t1/2). Stability of compound 4 in further S9 fractions are summarized in […]
Table S4. Metabolic stability studies in various S9 fractions. […]

[5] = In vivo pharmacokinetics after intratracheal instillation; parameters: species or system mouse; details: for Kp / Cmax / AUC(0-t) / MRT / Tmax / half-life / CL/F / Vd/F / AUC: male, CD1, mouse, inhaled or intranasal; for Kp: BALF and plasma, read-out: AUC ratio BALF/Plasma; for Vd/F: read-out: Vz/F_obs
Protocol: 6.2. PK Sample Preparation and Analysis
Groups of male CD1 mice (25-30 g, Charles River UK) were housed in groups of up to 6 and maintained under a 12 h light/dark cycle with free access to food and water. Temperature and humidity were controlled according to U.K. HO regulations. On the day of the study, mice were briefly anaesthetized with isoflurane before suspending the mouse by its upper incisors on a board held at an angle of approx. 45 degrees. Mice were then dosed intratracheally with the compound (4 or Tob) at the designated does formulated in ethanol/tyloxapol/glycerol/phosphate-buffered saline (PBS) [10:1:5:84] in a 1 mL/kg dosing volume up to a maximum of 30 µL per mouse. A laryngoscope was used to facilitate dosing.
Animals were allowed to recover before replacing into their home cages. […]
Blood samples were placed in tubes on ice containing EDTA anticoagulant. After gentle mixing, samples were centrifuged (10,000 rpm x 3 min) and two 50 μL aliquots taken into fresh tubes that were immediately frozen on dry ice. Following blood sample collection, tracheas were exposed and a small incision made. An 18 Gauge plastic tube was then inserted through the incision into the trachea and tied in place. Aliquots of 0.8 mL of sterile saline were then infused into and then withdrawn from the lungs and the collected bronchoalveolar lavage (BAL) sample placed into a tube. This process was repeated two more times, and the samples from each mouse pooled. The resulting samples were weighed and mixed, before a 1 mL aliquot was taken for analysis and frozen on dry ice.
Immediately after collecting the final BALF sample, lung samples were excised and excess tissue removed, before rinsing in saline, blotting and weighing. Samples were then snap frozen by immersion in liquid nitrogen. All samples were stored at -20 °C until sent for […]
All PK plasma samples were analyzed via HPLC-MS/MS using an Agilent 1290 Infinity II HPLC system coupled to an AB Sciex QTrap 6500plus mass spectrometer. First, a calibration curve was prepared by spiking different concentrations of compound 4 or Tob (Fa. Sigma) into plasma, homogenized lung from CD-1 mice or 0.9% sodium chloride solution as matrix for broncheoalveolar lavage fluid (BALF). The lower limits of quantification are indicated in Table S5. Caffeine was used as internal standard. In addition, quality control samples (QCs) were prepared for 4 and Tob in plasma, homogenized lung and 0.9% sodium chloride […]
The following extraction procedure was used for 4: plasma: 7.5 µL of a plasma sample (calibration samples, QCs or PK samples) was extracted with 37.5 µL of acetonitrile containing 12.5 ng/mL caffeine as internal standard for 10 min at 2000 rpm on an Eppendorf MixMate® vortex mixer. Lung: homogenized samples were diluted to 50 mg/mL lung tissue in 0.9% sodium chloride solution. A 50 µL of a lung sample (calibration samples, QCs or PK samples) was extracted with 15 µL water containing 10% formic acid and 50 µL of acetonitrile containing 12.5 ng/mL caffeine as internal standard for 10 min at 2.000 rpm on an Eppendorf MixMate® vortex mixer. BALF: 200 µL of methanol were added to 100 µL of a BALF sample (calibration samples, QCs or PK samples). Samples were concentrated in an Eppendorf concentrator until dryness at 30 °C. A 30 µL of water containing 10% formic acid

[6] = pooled mouse liver S9 fraction, Table 2, read-out: Metabolic stability t 1/2 S9 mouse
[7] = BALF, 0.5 mg kg^−1, mice, intratracheal, BALF, read-out: Cmax BALF
[8] = BALF, mice, intratracheal, Figure 3B, read-out: BALF: AUC0-t
[9] = ELF (calculated from BALF), 0.5 mg kg^−1, mice, intratracheal, ELF calculated from BALF, read-out: Cmax ELF
[10] = 0.5 mg kg^−1, mice, intratracheal, BALF, read-out: AUC0-t BALF
[11] = 0.5 mg kg^−1, mice, intratracheal, BALF, read-out: MRT BALF
[12] = 0.5 mg kg^−1, mice, intratracheal, BALF, read-out: Tmax BALF
[13] = 0.5 mg kg^−1, mice, intratracheal, ELF calculated from BALF, read-out: AUC0-t ELF
[14] = 0.5 mg kg^−1, mice, intratracheal, ELF calculated from BALF, read-out: MRT ELF
[15] = 0.5 mg kg^−1, mice, intratracheal, ELF calculated from BALF, read-out: Tmax ELF
[16] = 0.5 mg kg^−1, mice, intratracheal, ELF calculated from BALF, read-out: t1/2 ELF (converted)
[17] = 0.5 mg kg^−1, mice, intratracheal, lung tissue, read-out: MRT lung
[18] = 0.5 mg kg^−1, mice, intratracheal, lung tissue, read-out: Tmax lung
[19] = 0.5 mg kg^−1, mice, intratracheal, lung tissue, read-out: t1/2 lung (converted)
[20] = 0.5 mg kg^−1, mice, intratracheal, plasma
[21] = 0.5 mg kg^−1, mice, intratracheal, plasma, read-out: AUC0-t plasma
[22] = 0.5 mg kg^−1, mice, intratracheal, plasma, read-out: MRT plasma
[23] = 0.5 mg kg^−1, mice, intratracheal, plasma, read-out: Tmax plasma
[24] = mice, intratracheal (QSI 4 0.5 mg kg^−1), plasma, read-out: t1/2 plasma (converted)
[25] = mice, intratracheal, BALF, read-out: t1/2 BALF (converted)
[26] = plasma, 0.5 mg kg^−1, mice, intratracheal, plasma, read-out: Cmax plasma
[27] = plasma, mice, intratracheal, Figure 3B, read-out: Plasma: AUC0-t

SMILES	% binding, Norepinephrine transporter [1] [%]	% binding, β2 receptor (β2 receptor)	% binding, α1A receptor (α1A receptor) [%]	% binding, Ca2+ channel (L, dihydropyridine site) [2] [%]	% binding, Dopamine transporter (Dopamine transporter) [%]	% binding, Na+ channel (site 2) (Na+ channel (site 2)) [%]	IC50 [3] [µM]	half-life at 1 μM [4, 6] [min]	Kp ([5]; mice, intratracheal)	Cmax [5, 7]	AUC(0-t) [5, 8] [ng·h/mL]	Cmax [5, 9]	AUC(0-t) [5, 10]	MRT [5, 11] [min]	Tmax [5, 12] [min]	AUC(0-t) [5, 13]	MRT [5, 14] [min]	Tmax [5, 15] [min]	half-life [5, 16] [min]	MRT [5, 17] [min]	further results
COc1ccc(-n2cc(CNc3ccnc(C(F)(F)F)c3)nn2)cc1Cl [Compound 17]	8.58	85.3% and 85%	55.42	30.36	28.91	-27.90	1.6 ± 1.1	11													
NC[C@H]1O[C@H](O[C@H]2[C@H](O)[C@@H](O[C@H]3O[C@H](CO)[C@@H](O)[C@H](N)[C@H]3O)[C@H](N)C[C@@H]2N)[C@H](N)C[C@@H]1O [Tobramycin, tobramycin]									3.2	215 ng/mL and 460 nM	268 ± 27	38.8 ng/mL and 83 nM	268 ng·h/mL and 0.57 µM·h	84 ± 6	30	57.5 ng·h/mL and 0.12 µM·h	90 ± 12	30	33.6 ± 12	116	Tmax [5, 18]: 30 min; half-life [5, 19]: 67.8 min; CL/F [5, 20]: 45.3 ± 26.6 mL/min/kg; AUC(0-t) [5, 21]: 83.2 ng·h/mL and 0.178 µM·h; MRT [5, 22]: 87 ± 72 min; Tmax [5, 23]: 30 min; Vd/F [5, 20]: 2.25 ± 1.6 L/kg; half-life [5, 24]: 45.6 ± 48 min; half-life [5, 25]: 49.2 ± 6 min; Cmax [5, 26]: 89.5 ng/mL and 191 nM; AUC(0-t) [5, 27]: 83.2 ± 35.3 ng·h/mL; Cmax BALF ([5]; mice, intratracheal, BALF): 215.4 ± 50 ng/mL
FC(F)(F)c1cc(NCc2cn(-c3ccc(Oc4ccccc4)cc3)nn2)ccn1 [Compound 4]	82.52	18.03% and 18%	40.59	78.29	97.25	54.62	0.22 ± 0.05	29	86.9	3770 ng/mL and 9.2 µM	4840 ± 2180	1290 ng/mL and 3.1 µM	4840 ng·h/mL and 11.8 µM·h	94.2 ± 6	30	3100 ng·h/mL and 7.5 µM·h	96.6 ± 66	100 ± 120	33 ± 18	76.2 ± 24	Cmax ([5]; BALF, 0.5 mg/kg, mice, intratracheal 0.5 mg kg^−1, BALF, read-out: C max in BALF): 3770 ± 2660 ng/mL; Tmax [5, 18]: 30 min; half-life [5, 19]: 64.8 ± 30 min; CL/F [5, 20]: 157 ± 55.5 mL/min/kg; AUC(0-t) [5, 21]: 55.8 ng·h/mL and 0.135 µM·h; MRT [5, 22]: 72 ± 6 min; Tmax [5, 23]: 30 min; Vd/F [5, 20]: 10.5 ± 1.2 L/kg; AUC ([5]; mice, intratracheal 0.5 mg kg^−1, BALF, read-out: AUC0‐t BALF): 4840 ± 2180 ng·h/mL; AUC ([5]; mice, intratracheal 0.5 mg kg^−1, ELF, read-out: AUC0‐t ELF): 3100 ± 330 ng·h/mL; AUC ([5]; mice, intratracheal 0.5 mg kg^−1, plasma, read-out: AUC0‐t plasma): 55.8 ± 21.3 ng·h/mL; half-life [5, 24]: 51.6 ± 24 min; half-life [5, 25]: 43.2 ± 30 min; Cmax [5, 26]: 62.6 ng/mL and 151 nM; Cmax ([5]; plasma, 0.5 mg/kg, mice, intratracheal 0.5 mg kg^−1, plasma, read-out: plasma C max): 62.6 ± 45.7 ng/mL; AUC(0-t) [5, 27]: 55.8 ± 21.3 ng·h/mL; half-life at 1 μM ([4]; pooled liver S9 fraction, Table S4, read-out: t1/2 mouse liver S9): 19.9 ± 7.5 min
